The structures appear in SMILES notation. pKd: −log10 of the molar value.

The assay deals with Epidermal growth factor receptor (Homo sapiens, UniProt P00533). Kind of assay: Biochemical Assay: Thus, while these compounds were extensively used in studying ILK-mediated cellular and disease processes, their reported inhibitory effects are probably due to unknown artifacts or indirect binding events. Next, we turned our attention to previously reported studies on kinase profiling and quantitative chemical proteomics. These studies suggested that a widely known lung ….
Sequence of Epidermal growth factor receptor (P00533 whole entry): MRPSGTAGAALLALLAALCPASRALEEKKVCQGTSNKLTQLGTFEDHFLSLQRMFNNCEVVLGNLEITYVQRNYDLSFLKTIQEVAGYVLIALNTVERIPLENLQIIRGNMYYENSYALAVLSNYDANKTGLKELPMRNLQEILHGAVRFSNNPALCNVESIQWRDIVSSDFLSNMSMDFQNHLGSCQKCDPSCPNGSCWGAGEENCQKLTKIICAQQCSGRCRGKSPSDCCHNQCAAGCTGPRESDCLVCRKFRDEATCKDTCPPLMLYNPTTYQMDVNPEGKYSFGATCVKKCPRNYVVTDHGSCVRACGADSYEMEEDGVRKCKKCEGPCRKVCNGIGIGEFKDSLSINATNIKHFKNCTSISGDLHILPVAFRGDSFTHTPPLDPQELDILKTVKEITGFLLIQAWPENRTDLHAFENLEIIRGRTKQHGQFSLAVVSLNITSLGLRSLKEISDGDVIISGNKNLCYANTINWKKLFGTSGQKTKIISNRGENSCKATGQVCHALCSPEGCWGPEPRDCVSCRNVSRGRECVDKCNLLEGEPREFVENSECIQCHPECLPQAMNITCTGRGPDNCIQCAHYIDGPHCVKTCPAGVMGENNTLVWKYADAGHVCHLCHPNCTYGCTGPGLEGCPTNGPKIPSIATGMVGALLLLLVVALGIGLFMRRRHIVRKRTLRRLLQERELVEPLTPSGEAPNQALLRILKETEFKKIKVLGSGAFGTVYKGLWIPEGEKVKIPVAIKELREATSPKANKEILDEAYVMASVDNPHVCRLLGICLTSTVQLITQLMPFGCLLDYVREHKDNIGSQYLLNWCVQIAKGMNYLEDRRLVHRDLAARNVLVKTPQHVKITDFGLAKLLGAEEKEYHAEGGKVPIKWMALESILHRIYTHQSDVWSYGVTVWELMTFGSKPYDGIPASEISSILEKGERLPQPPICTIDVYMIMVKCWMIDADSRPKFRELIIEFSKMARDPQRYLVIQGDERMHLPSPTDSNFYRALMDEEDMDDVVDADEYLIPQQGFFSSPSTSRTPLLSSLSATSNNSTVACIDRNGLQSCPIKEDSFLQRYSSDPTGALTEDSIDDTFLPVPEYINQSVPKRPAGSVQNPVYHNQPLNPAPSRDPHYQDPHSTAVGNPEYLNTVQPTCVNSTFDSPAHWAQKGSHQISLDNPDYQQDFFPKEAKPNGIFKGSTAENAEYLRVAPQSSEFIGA
Regarding `C#Cc1cc(Nc2ncnc3cc(OCCOC)ccc23)cc(OCCOCC)c1`, the pKd (as a rule, −log10 of the Kd, conventionally taken in molar units) is 4.75.
The figure for `C#Cc1cc(C#C)cc(Nc2ncnc3cc(OC)c(OC)cc23)c1` is 5.94; for `C#Cc1cc(Nc2ncnc3cc(OCCOC)c(OCCOC)cc23)ccc1C` it is 6.13.

The record behind these values is ChEMBL document CHEMBL5729469, “Compounds for treating ILK-mediated diseases” (2022).
